Where two headings read alike, the source gives them in different places.
Tested on: U87 cells

SMILES: [Os+2].c1ccc2cc3nc4c5cccnc5c5ncccc5c4nc3cc2c1.c1ccc2nc(-c3ccc4ccccc4n3)ccc2c1.c1ccc2nc(-c3ccc4ccccc4n3)ccc2c1 [TLDOsH2dppn]
- Therapeutic Ratio (530 nm, 90 J cm−2, no transferrin): 1307.3
- Therapeutic Ratio (530 nm, 90 J cm−2, transferrin): 5238.0
- Therapeutic Ratio (650 nm, 90 J cm−2, no transferrin): 15.3
- Therapeutic Ratio (650 nm, 90 J cm−2, transferrin): 50.3

Source: US10111936B2, “Metal-glycoprotein complexes and photodynamic therapy of immune privileged sites with same” (Theralase Technologies, Inc., priority 2015, dated 2018)
